Measured values: patent US6372804B1, “Noxious-insect repellent” (Kanebo, Ltd., priority 1991, dated 2002)

Assays:
[1] = system: imagoes of the tiger mosquito, Aedes albopictus; experiment: noxious-insect repellency test (treated forearm in a cage of tiger mosquitoes, percent repellency from biting marks); format: in vivo; settings: for Percent repellency: an hour after application; for noxious-insect repelling effect and durability (result in words): lotion or milky lotion containing the compound, tiger mosquito imagoes
Protocol: In each example, the noxious-insect repellency test was conducted as follows:
Test method of noxious-insect repelling effect and durability thereof In order to assess the repelling effect against imagoes of the tiger mosquito, Aedes albopictus, the following test was conducted at a room temperature of 30° C. and a relative humidity of 70% in an air-conditioned room. 10 ml each of test samples was applied to left and right forearms. Each treated forearm was introduced into a wire gauze cage (20 cm L.×15 cm Dia.) containing 50 female and 50 male tiger mosquitoes 5-7 days old after eclosion, for 15 minutes to afford time for biting. The assessment was repeated 30 minutes, 1 hour, 2 hours, 4 hours and 6 hours after the test sample was applied. The number of marks made by biting within each biting time was counted and a percent repellency was calculated using the following formula:
Percent repellency=(X−Y)/X×100 (%)
X: the number of the marks made by biting when the test sample was not applied,
Y: the number of the marks made by biting when the test sample was applied.

[2] = solubility in a 90 wt. % ethanol aqueous solution; format: physicochemical; parameters: key: ◯: Soluble; X: Insoluble
Protocol: (§1) With the purpose of investigating the properties of the compounds to be used for the present invention, solubilities in a 90 wt. % ethanol aqueous solution and stabilities at 0° C., room temperature and 40° C., of hydroxymethyl-menthol, 2-hydroxymethyl-2-butyl-cyclopentanol and 2-(1-hydroxyisopropyl)-5,6-dimethyl-cyclohexanone, were investigated. […] Furthermore, it can be understood that the quantity of the repellent compound is preferred to be at most 20% by weight, in view of touch in use.

[3] = stability in a 90 wt. % ethanol aqueous solution at 0° C., room temperature and 40° C.; format: physicochemical; parameters: key: ◯: Stable; X: Precipitated
Protocol: as §1

[4] = 0° C., content 10% (wt. %) in 90 wt. % ethanol aqueous solution
[5] = 0° C., content 20% (wt. %) in 90 wt. % ethanol aqueous solution
[6] = 0° C., content 50% (wt. %) in 90 wt. % ethanol aqueous solution
[7] = 0° C., content 90% (wt. %) in 90 wt. % ethanol aqueous solution
[8] = 0° C., content 95% (wt. %) in 90 wt. % ethanol aqueous solution
[9] = 40° C., content 10% (wt. %) in 90 wt. % ethanol aqueous solution
[10] = 40° C., content 20% (wt. %) in 90 wt. % ethanol aqueous solution
[11] = 40° C., content 50% (wt. %) in 90 wt. % ethanol aqueous solution
[12] = 40° C., content 90% (wt. %) in 90 wt. % ethanol aqueous solution
[13] = 40° C., content 95% (wt. %) in 90 wt. % ethanol aqueous solution
[14] = room temperature, content 10% (wt. %) in 90 wt. % ethanol aqueous solution
[15] = room temperature, content 20% (wt. %) in 90 wt. % ethanol aqueous solution
[16] = room temperature, content 50% (wt. %) in 90 wt. % ethanol aqueous solution
[17] = room temperature, content 90% (wt. %) in 90 wt. % ethanol aqueous solution
[18] = room temperature, content 95% (wt. %) in 90 wt. % ethanol aqueous solution

For `CCCCC1(CO)CCCC1O` (centres unmarked) [2-Hydroxymethyl-2-butyl-cyclopentanol, 2-hydroxymethyl-2-butyl-cyclopentanol], the Percent repellency ([1]; content 0.1% (wt. %) in 40 wt. % ethanol aqueous solution) was 24%, the Percent repellency ([1]; content 1% (wt. %) in 40 wt. % ethanol aqueous solution) was 60% and the Percent repellency ([1]; content 3% (wt. %) in 40 wt. % ethanol aqueous solution) was 88%. For the same molecule, the Solubility [2, 4] was “◯”, the Solubility [2, 5] was “◯” and the Solubility [2, 6] was “◯”. For the same molecule, the Solubility [2, 7] was “◯”, the Solubility [2, 8] was “◯” and the Solubility [2, 9] was “◯”. The Solubility [2, 10] was “◯”, the Solubility [2, 11] was “◯” and the Solubility [2, 12] was “◯”. For the same molecule, the Solubility [2, 13] was “◯”, the Solubility [2, 14] was “◯” and the Solubility [2, 15] was “◯”. For the same molecule, the Solubility [2, 16] was “◯”, the Solubility [2, 17] was “◯” and the Solubility [2, 18] was “◯”. For the same molecule, the Stability [3, 4] was “◯”, the Stability [3, 5] was “◯” and the Stability [3, 6] was “◯”. The Stability [3, 7] was “◯”, the Stability [3, 8] was “X” and the Stability [3, 9] was “◯”. The Stability [3, 10] was “◯”, the Stability [3, 11] was “◯” and the Stability [3, 12] was “◯”. For the same molecule, the Stability [3, 13] was “◯”, the Stability [3, 14] was “◯” and the Stability [3, 15] was “◯”. For the same molecule, the Stability [3, 16] was “◯”, the Stability [3, 17] was “◯” and the Stability [3, 18] was “X”.
With p-menthane-2-ethyl-3,8-diol the “noxious-insect repelling effect and durability (result in words)” value [1] was “excellent noxious-insect repelling effect and durability”.
For p-menthane-2-hexyl-3,8-diol, the “noxious-insect repelling effect and durability (result in words)” value [1] was “excellent noxious-insect repelling effect and durability”.
